{"source": "patent US9226950B2", "about": "“Method and composition for treating diabetes mellitus” (National Dong Hwa University, priority 2013, dated 2016)", "key": {"[1]": {"tested_on": "GLUT4", "assay": "GLUT4 translocation assay in differentiated C2C12 myotubes", "format": "cell-based, mouse", "conditions": "FIG. 3", "procedure": "Mouse muscle myoblast cells (C2C12) were obtained from the Food Industry Research and Development Institute (FIRDI, Hsinchu, Taiwan). The cells were grown and maintained in Dulbecco's Modified Eagle's Medium high glucose (DMEM-high glucose; GIBCO, CA, USA) containing 10% fetal bovine serum (FBS, GIBCO) and 1% penicillin streptomycin (GIBCO) in a cell culture incubator with 5% CO2 at 37° C. Prior to the following experiments, the cells were seeded and cultured at a density of 8×10^3 cells per well in 96-well plates or 2.5×10^5 cells per well in 6-well plates. […]\nThe C2C12 cells were fully differentiated with DMEM supplemented with 1% FBS and 1% horse serum for 4 days. […] The translocation changes of GLUT4 of the cells were detected. […] The HRP activity was determined by measuring the absorbance at 450 nm with a spectrophotometer (EnSpire 2300 Multilabel Reader, Perkin Elmer, Waltham, Mass., USA).\nTo detect the effect of tetracosanol on Glut4 translocation in S961-induced insulin resistance, the differentiated C2C12 cells were treated with or without 20 nM S961 (S961) followed by 185 μM of insulin (Ins), and treated with or without 100 μM of Tetracosanol (Tet) (n=4 in each group). […] At the cellular level, the ability of glucose uptake was determined by controlling the amount of the GLUT4 glucose transporter present in the plasma membrane. […]"}, "[2]": {"tested_on": "S961-induced hyperglycemic mice (DM mice)", "assay": "Oral glucose tolerance test (OGTT) in S961-induced hyperglycemic mice", "format": "in vivo, C57BL/6 mouse", "conditions": "D-glucose 2 g/kg", "procedure": "Animal experiments were approved by the National Dong-Hwa University Animal Ethics Committee and were used according to the “Guide for the Care and Use of Laboratory Animals” of National Dong-Hwa University. The C57BL/6 mouse were obtained National Laboratory Animal Center (Taipei, Taiwan) and kept at controlled environmental conditions with room temperature (22±2° C.) and humidity (50±10%). The 12 hr light (0600 am-1800 pm) and 12 hr dark cycle was maintained throughout the study. Mice had free access to food and water and maintained on a standard laboratory diet (containing carbohydrates: 60%, proteins: 28%, lipids: 12%, and vitamins: 3%).\nThe 8 weeks old male C57 BL/6 mice after fasting 12 hr were used in this test. The mice were orally administered (p.o.) with tetracosanol (dissolved in PEG and EtOH, 25 mg/kg Bwt) or Metformin (100 mg/kg Bwt) for 3 hr. To investigate the effect of tetracosanol on the DM mice, the mice were intraperitoneally injected (i.p.) with S961 (50 nmol/kg Bwt) to induce hyperglycemia, prior to the administration of D-glucose (2 g/kg Bwt, p.o.). At approximately the 0, 30, 60, 90, and 120 min., the blood of each mouse was sampled by venipuncture from the tail vein for the determination of blood glucose. Blood glucose was immediately determined by the glucose oxidase method using glucose analyzer (Accu-Chek, Roche).\nTo investigate the glycemic control effect of tetracosanol on the hyperglycemic mice, hyperglycemic mice were induced by insulin receptor antagonist-S961. The mice of each group were treated with or without Metformin (Met) as positive control, or treated with or without tetracosanol (Tet). Then, all the groups were administered with D-glucose (2 g/kg Bwt) (n=6 in each group). The tetracosanol for glycemic control was confirmed by OGTT.\n8 weeks old male C57 BL/6 mice after fasting 12 hr were employed in this study. […] The blood glucose was determined by the glucose oxidase method using glucose analyzer (Accu-Chek, Roche). […]"}}, "data": [{"compound": "CCCCCCCCCCCCCCCCCCCCCCCCO", "note": "[tetracosanol]", "values": [{"measurement": "insulin-dependent GLUT4 translocation", "setting": "[1]; insulin resistance C2C12 differentiated myotubes induced by 20 nM S961, insulin plus tetracosanol (100 μM)", "value": "provided the recovery ability"}, {"measurement": "insulin-dependent GLUT4 translocation", "setting": "[1]; normal C2C12 differentiated myotubes (Ins), 100 μM tetracosanol, 185 μM insulin", "value": "no effects"}, {"measurement": "blood glucose change in OGTT", "setting": "[2]; DM mice (S961), p.o., comparison with metformin, FIG. 6(a)", "value": "even better than metformin"}, {"measurement": "blood glucose change in OGTT", "setting": "[2]; tetracosanol 25 mg/kg Bwt p.o. versus Metformin 100 mg/kg Bwt, S961 50 nmol/kg i.p., FIG. 5(a)", "value": "profile similar to the treatment with metformin"}, {"measurement": "AUC of the blood glucose change in OGTT", "setting": "[2]; tetracosanol 25 mg/kg Bwt p.o., DM mice (S961) and normal mice (Con), FIG. 5(b)", "value": "good efficacy in glycemic control"}]}]}
